Test results taken from the SangsterLogP compilation.

Test: method code SF-AS, from DOI: 10.1016/0378-5173(79)90126-1
Details: pH 3.5

SMILES	logD
CCOC(=O)C(CC)(CC)C(=O)NC(N)=O	1.45
C=CCC(CC=C)(C(=O)NC(N)=O)C(=O)OC	1.37
CCC(C(=O)NC(N)=O)(C(=O)OC)c1ccccc1 (stereo not given)	1.58
CCC(CC)(C(=O)NC(N)=O)C(=O)OC(C)C	1.99
CCC(CC)(C(=O)NC(N)=O)C(=O)OCc1ccccc1	2.74

Further lines, results first:

logD	SMILES
1.8	CNC(=O)NC(=O)C(C)(C(=O)OCOC)C1=CCCCC1 (stereo not given)
0.99	CCC(CC)(C(=O)NC(N)=O)C(=O)OCC(=O)OC
2.25	CCNC(=O)NC(=O)C(C)(C(=O)OC)C1=CCCCC1 (stereo not given)
1.75	CNC(=O)NC(=O)C(C)(C(=O)OC)C1C=CCCC1 (stereo not given)
0.95	CCC(CC)(C(=O)NC(N)=O)C(=O)OC
